Where two headings read alike, the source gives them in different places.
Experiments:
Mcl-1 = Mcl-1 (Homo sapiens (Human), UniProt Q07820); assay: Fluorescence polarization anisotropy (FPA) competition assay, FITC-Bak or FITC-Bim BH3 peptide; type: binding; details: read-out: Ki for Inhibition of Mcl-1 by FPA assay
[1] = system: H929 human cancer cell lines; assay: Cellular viability / proliferation (Cell TiterGlo, 72 h); type: cell-based
Method in brief: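 Top dose 50 μM, serially diluted 2-fold, applied one day after seeding (1,000 cells/well, 10% FBS), DMSO below 1%.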

[2] = Homo sapiens, NCI-H929, 72 h, read-out: GI50 on cellular proliferation of H929 human cancer cell lines, H929 cells, 72 h, Cell TiterGlo, 10% FBS
[3] = H929 cells, 72 h, Cell TiterGlo, 10% FBS, read-out: GI50 on cellular proliferation of H929 human cancer cell lines

Sequence of Mcl-1 (Q07820 172-327): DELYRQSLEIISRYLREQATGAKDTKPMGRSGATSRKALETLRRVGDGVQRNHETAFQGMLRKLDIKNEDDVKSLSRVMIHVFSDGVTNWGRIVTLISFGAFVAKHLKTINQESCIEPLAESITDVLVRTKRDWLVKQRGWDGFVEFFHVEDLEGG

Question: With `Cc1cc(N2C[C@@H](C)n3c(c(CCCOc4cc(C)c(Cl)c(C)c4)c4ccc(Cl)c(-c5c(C)nn(C)c5C)c43)C2=O)c2c(c1)cc(C(N)=O)n2Cc1ccccn1` [Example 415, (R)-7-(7-Chloro-10-(3-(4-chloro-3,5-dimethylphenoxy)propyl)-4-methyl-1-oxo-6-(1,3,5-trimethyl-1H-pyrazol-4-yl)-3,4-dihydropyrazino[1,2-a]indol-2(1H)-yl)-5-methyl-1-(pyridin-2-ylmethyl)-1H-indole-2-carboxamide] as the molecule, how does the Ki (Mcl-1) read?
Answer: 3.4 nM

Question: And the GI50 [1, 2]?
Answer: 510 nM

Question: Which results are given for `Cc1cc(OCCCc2c3n(c4c(-c5c(C)nn(C)c5C)c(Cl)ccc24)[C@H](C)CN(c2cc4ccc(C(=O)O)cc4n2C)C3=O)cc(C)c1Cl` [Example 180, 2-[(4R)-7-chloro-10-[3-(4-chloro-3,5-dimethyl-phenoxy)propyl]-4-methyl-1-oxo-6-(1,3,5-trimethylpyrazol-4-yl)-3,4-dihydropyrazino[1,2-a]indol-2-yl]-1-methyl-indole-6-carboxylic acid]?
Answer: Ki (Mcl-1): 2.1 nM; GI50 [1, 2]: 1500 nM

Question: What does the source list for `Cc1cc(OCCCc2c3n(c4c(-c5c(C)nn(C)c5C)c(Cl)ccc24)[C@H](C)CN(c2cccc4ccn(C)c24)C3=O)cc(C)c1Cl` [Example 234, (R)-7-Chloro-10-(3-(4-chloro-3,5-dimethylphenoxy)propyl)-4-methyl-2-(1-methyl-1H-indol-7-yl)-6-(1,3,5-trimethyl-1H-pyrazol-4-yl)-3,4-dihydropyrazino[1,2-a]indol-1(2H)-one]?
Answer: Ki (Mcl-1): < 1 nM; GI50 [1, 2]: 1600 nM

Question: How did the Ki (Mcl-1) turn out when `Cc1cc(OCCCc2c3n(c4c(-c5c(C)nn(C)c5C)c(Cl)ccc24)[C@H](C)CN(c2cc4c(C(=O)O)cccc4n2C)C3=O)cc(C)c1Cl` [Example 170, 2-[(4R)-7-chloro-10-[3-(4-chloro-3,5-dimethyl-phenoxy)propyl]-4-methyl-1-oxo-6-(1,3,5-trimethylpyrazol-4-yl)-3,4-dihydropyrazino[1,2-a]indol-2-yl]-1-methyl-indole-4-carboxylic acid] was run?
Answer: 2.7 nM

Question: And the GI50 [1, 2]?
Answer: 2600 nM

Question: `Cc1cc(OCCCc2c3n(c4c(-c5c(C)nn(C)c5C)c(Cl)ccc24)[C@H](C)CN(c2c(C(=O)O)ccc4ccccc24)C3=O)cc(C)c1Cl` [Example 190, (R)-1-(7-Chloro-10-(3-(4-chloro-3,5-dimethylphenoxy)propyl)-4-methyl-1-oxo-6-(1,3,5-trimethyl-1H-pyrazol-4-yl)-3,4-dihydropyrazino[1,2-a]indol-2(1H)-yl)-2-naphthoic acid] was tested. Which Ki (Mcl-1) did it give?
Answer: < 1 nM

Question: What about the GI50 [1, 2] of the same molecule?
Answer: 2200 nM

Question: `Cc1cc(OCCCc2c3n(c4c(-c5c(C)ncnc5C)c(Cl)ccc24)[C@H](C)CN(c2cccc4c(C(=O)O)cn(C)c24)C3=O)cc(C)c1Cl` [Example 168, 7-[(4R)-7-chloro-10-[3-(4-chloro-3,5-dimethyl-phenoxy)propyl]-6-(4,6-dimethylpyrimidin-5-yl)-4-methyl-1-oxo-3,4-dihydropyrazino[1,2-a]indol-2-yl]-1-methyl-indole-3-carboxylic acid] was tested. Which Ki (Mcl-1) did it give?
Answer: 1.1 nM

Question: What about the GI50 [1, 2] of the same molecule?
Answer: 1000 nM

Question: With `COCCn1cc(N2C[C@@H](C)n3c(c(CCCOc4cc(C)c(Cl)c(C)c4)c4ccc(Cl)c(-c5c(C)nn(C)c5C)c43)C2=O)c2cc(C(=O)O)ccc21` [Example 268, (R)-3-(7-chloro-10-(3-(4-chloro-3,5-dimethylphenoxy)propyl)-4-methyl-1-oxo-6-(1,3,5-trimethyl-1H-pyrazol-4-yl)-3,4-dihydropyrazino[1,2-a]indol-2(1H)-yl)-1-(2-methoxyethyl)-1H-indole-5-carboxylic acid] as the molecule, how does the Ki (Mcl-1) read?
Answer: < 1 nM

Question: What about the GI50 [1, 2] of the same molecule?
Answer: 410 nM

Question: Which results are given for `Cc1cc(OCCCc2c3n(c4c(-c5c(C)ncnc5C)c(Cl)ccc24)CCCN(c2cc(C(=O)O)c4cnn(C)c4c2)C3=O)cc(C)c1Cl` [Example 155, 6-[8-Chloro-11-[3-(4-chloro-3,5-dimethyl-phenoxy)propyl]-7-(4,6-dimethylpyrimidin-5-yl)-1-oxo-4,5-dihydro-3H-[1,4]diazepino[1,2-a]indol-2-yl]-1-methyl-indazole-4-carboxylic acid]?
Answer: Ki (Mcl-1): < 1 nM; GI50 [1, 2]: 1400 nM

Question: Which results are given for `Cc1cc(OCCCc2c3n(c4c(-c5c(C)nn(C)c5C)c(Cl)ccc24)[C@H](C)CN(c2cn(C)c4ccc(C(N)=O)cc24)C3=O)cc(C)c1Cl` [Example 221, 3-[(4R)-7-chloro-10-[3-(4-chloro-3,5-dimethyl-phenoxy)propyl]-4-methyl-1-oxo-6-(1,3,5-trimethylpyrazol-4-yl)-3,4-dihydropyrazino[1,2-a]indol-2-yl]-1-methyl-indole-5-carboxamide]?
Answer: Ki (Mcl-1): 2.5 nM; GI50 [1, 2]: 450 nM

Question: `Cc1cc(OCCCc2c3n(c4c(-c5c(C)nn(C)c5C)c(Cl)ccc24)[C@H](C)CN(c2cc(OCc4ccccc4)cc4c2cc(C(=O)O)n4C)C3=O)cc(C)c1Cl` [Example 310, (M, R)-6-(benzyloxy)-4-(7-chloro-10-(3-(4-chloro-3,5-dimethylphenoxy)propyl)-4-methyl-1-oxo-6-(1,3,5-trimethyl-1H-pyrazol-4-yl)-3,4-dihydropyrazino[1,2-a]indol-2(1H)-yl)-1-methyl-1H-indole-2-carboxylic acid] was tested. Which Ki (Mcl-1) did it give?
Answer: 1.5 nM

Question: What about the GI50 [1, 3] of the same molecule?
Answer: 8900 nM

Question: How did the Ki (Mcl-1) turn out when `CCn1cc2cc(C(=O)O)cc(N3CCCn4c(c(CCCOc5cc(C)c(Cl)c(C)c5)c5ccc(Cl)c(-c6c(C)nn(C)c6C)c54)C3=O)c2n1` [Example 124, 7-(8-chloro-11-(3-(4-chloro-3,5-dimethylphenoxy)propyl)-1-oxo-7-(1,3,5-trimethyl-1H-pyrazol-4-yl)-4,5-dihydro-1H-[1,4]diazepino[1,2-a]indol-2(3H)-yl)-2-ethyl-2H-indazole-5-carboxylic acid] was run?
Answer: < 1 nM

Question: What about the GI50 [1, 2] of the same molecule?
Answer: 1900 nM

Question: Which Ki (Mcl-1) does the source give for `Cc1ccc(Cn2c(C(=O)O)cc3cccc(N4C[C@@H](C)n5c(c(CCCOc6cc(C)c(Cl)c(C)c6)c6ccc(Cl)c(-c7c(C)nn(C)c7C)c65)C4=O)c32)nc1` [Example 363, (R)-7-(7-Chloro-10-(3-(4-chloro-3,5-dimethylphenoxy)propyl)-4-methyl-1-oxo-6-(1,3,5-trimethyl-1H-pyrazol-4-yl)-3,4-dihydropyrazino[1,2-a]indol-2(1H)-yl)-1-((5-methylpyridin-2-yl)methyl)-1H-indole-2-carboxylic acid] here?
Answer: 1.6 nM

Question: What about the GI50 [1, 2] of the same molecule?
Answer: 1400 nM

Question: Which Ki (Mcl-1) does the source give for `Cc1cc(OCCCc2c3n(c4c(-c5c(C)nn(C)c5C)c(Cl)ccc24)[C@H](C)CN(c2cn(C)c4ccc(C(=O)NN)cc24)C3=O)cc(C)c1Cl` [Example 366, (R)-3-(7-Chloro-10-(3-(4-chloro-3,5-dimethylphenoxy)propyl)-4-methyl-1-oxo-6-(1,3,5-trimethyl-1H-pyrazol-4-yl)-3,4-dihydropyrazino[1,2-a]indol-2(1H)-yl)-1-methyl-1H-indole-5-carbohydrazide] here?
Answer: 2.9 nM

Question: And the GI50 [1, 2]?
Answer: 440 nM

Question: Which Ki (Mcl-1) does the source give for `Cc1cc(OCCCc2c3n(c4c(-c5c(C)nn(C)c5C)c(Cl)ccc24)[C@H](C)CN(c2cn(C)c4ccc(-c5nnn[nH]5)cc24)C3=O)cc(C)c1Cl` [Example 235, (R)-7-Chloro-10-(3-(4-chloro-3,5-dimethylphenoxy)propyl)-4-methyl-2-(1-methyl-5-(1H-tetrazol-5-yl)-1H-indol-3-yl)-&(1,3,5-trimethyl-1H-pyrazol-4-yl)-3,4-dihydropyrazino[1,2-a]indol-1(2H)-one] here?
Answer: < 1 nM

Question: And the GI50 [1, 3]?
Answer: 240 nM

Source: patent US11596639B2, “Substituted indole Mcl-1 inhibitors” (Vanderbilt University, priority 2016, dated 2023)
